Measured values taken from ChEMBL document CHEMBL1201862, “PubChem BioAssay data set” (2004).
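Briefly, cells in 96-well plates were exposed to five compound concentrations for 48 h, and endpoints were estimated by linear interpolation. The concentration for 50% growth inhibition is given as GI50.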 The source made the active and inactive calls. Rule as the data show it: active = GI50 up to about 1.1 µM and inactive = higher.

Experiments:
Experiment in all cases: inhibition of tumour cell growth, NCI panel, 48 h
786-0 = system: 786-0
A498 = system: A498
A549 = system: A549
ACHN = system: ACHN
BT-549 = system: BT-549
CAKI-1 = system: CAKI-1
CCRF-CEM = system: CCRF-CEM
COLO 205 = system: COLO 205
DU-145 = system: DU-145
EKVX = system: EKVX
HCC 2998 = system: HCC 2998
HCT-116 = system: HCT-116
HCT-15 = system: HCT-15
HL-60 = system: HL-60
HOP-92 = system: HOP-92
HT-29 = system: HT-29
Hs-578T = system: Hs-578T
IGROV-1 = system: IGROV-1
K562 = system: K562
KM12 = system: KM12
LOX IMVI = system: LOX IMVI
M14 = system: M14
MCF7 = system: MCF7
MDA-MB-231 = system: MDA-MB-231
MDA-MB-435 = system: MDA-MB-435
MDA-N = system: MDA-N
MOLT-4 = system: MOLT-4
Malme-3M = system: Malme-3M
NCI-H226 = system: NCI-H226
NCI-H23 = system: NCI-H23
NCI-H460 = system: NCI-H460
NCI-H522 = system: NCI-H522
NCI/ADR-RES = system: NCI/ADR-RES
OVCAR-4 = system: OVCAR-4
OVCAR-5 = system: OVCAR-5
OVCAR-8 = system: OVCAR-8
PC-3 = system: PC-3
RPMI-8226 = system: RPMI-8226
RXF 393 = system: RXF 393
SF-268 = system: SF-268
SF-539 = system: SF-539
SK-MEL-28 = system: SK-MEL-28
SK-MEL-2 = system: SK-MEL-2
SK-MEL-5 = system: SK-MEL-5
SN12C = system: SN12C
SNB-19 = system: SNB-19
SNB-75 = system: SNB-75
SR = system: SR
SW-620 = system: SW-620
T47D = system: T47D
TK-10 = system: TK-10
U-251 = system: U-251
UACC-257 = system: UACC-257
UACC-62 = system: UACC-62
UO-31 = system: UO-31
HOP-62 = system: HOP-62
OVCAR-3 = system: OVCAR-3
SK-OV-3 = system: SK-OV-3
SF-295 = system: SF-295

Measured: GI50

O=C1C(Cl)C2(CC(/C=C/c3ccccc3Cl)=NN2c2cccc(S(=O)(=O)O)c2)N1c1nc2ccccc2s1 (centres undefined)
15.8 µM: HCT-15
inactive: 786-0 21.9 µM | A498 66.7 µM | A549 72.1 µM | ACHN 42.7 µM | BT-549 > 100 µM | CAKI-1 17.2 µM | CCRF-CEM 8.11 µM | COLO 205 > 100 µM | DU-145 21.2 µM | EKVX 49 µM | HCC 2998 85.9 µM | HCT-116 49.7 µM | HL-60 6.67 µM | HOP-92 36.6 µM | HT-29 98.2 µM | Hs-578T 81.8 µM | IGROV-1 26.9 µM | K562 2.11 µM | KM12 14.7 µM | LOX IMVI 12.4 µM | M14 72.6 µM | MCF7 21.6 µM | MDA-MB-231 79.8 µM | MDA-MB-435 1.5 µM | MDA-N 46 µM | MOLT-4 10.3 µM | Malme-3M 27 µM | NCI-H226 30.2 µM | NCI-H23 33.6 µM | NCI-H460 63.5 µM | NCI-H522 12.6 µM | NCI/ADR-RES > 100 µM | OVCAR-4 29.1 µM | OVCAR-5 > 100 µM | OVCAR-8 26.5 µM | PC-3 66.4 µM | RPMI-8226 9.29 µM | RXF 393 42.8 µM | SF-268 66.4 µM | SF-539 7.67 µM | SK-MEL-28 > 100 µM | SK-MEL-2 > 100 µM | SK-MEL-5 21.4 µM | SN12C 93.5 µM | SNB-19 > 100 µM | SNB-75 43.5 µM | SR 1.35 µM | SW-620 19.4 µM | T47D 11.3 µM | TK-10 24.2 µM | U-251 41.7 µM | UACC-257 66.8 µM | UACC-62 18.9 µM | UO-31 4.82 µM

N=c1oc2ccccc2cc1C(=O)Nc1cccc2ccccc12
> 100 µM: HCT-15
inactive: 786-0 80 µM | A498 > 100 µM | A549 > 100 µM | ACHN > 100 µM | BT-549 > 100 µM | CAKI-1 > 100 µM | CCRF-CEM > 100 µM | COLO 205 > 100 µM | DU-145 > 100 µM | HCC 2998 > 100 µM | HCT-116 > 100 µM | HL-60 > 100 µM | HOP-62 50 µM | HOP-92 > 100 µM | HT-29 > 100 µM | Hs-578T > 100 µM | IGROV-1 > 100 µM | K562 > 100 µM | KM12 > 100 µM | LOX IMVI > 100 µM | M14 > 100 µM | MCF7 83.2 µM | MDA-MB-231 > 100 µM | MDA-MB-435 > 100 µM | MDA-N > 100 µM | MOLT-4 > 100 µM | Malme-3M 56.6 µM | NCI-H226 > 100 µM | NCI-H23 > 100 µM | NCI-H460 > 100 µM | NCI/ADR-RES > 100 µM | OVCAR-3 > 100 µM | OVCAR-4 > 100 µM | OVCAR-5 > 100 µM | OVCAR-8 > 100 µM | PC-3 > 100 µM | RPMI-8226 > 100 µM | RXF 393 > 100 µM | SF-268 > 100 µM | SF-539 > 100 µM | SK-MEL-28 > 100 µM | SK-MEL-2 > 100 µM | SK-MEL-5 > 100 µM | SK-OV-3 > 100 µM | SN12C > 100 µM | SNB-19 > 100 µM | SNB-75 > 100 µM | SR > 100 µM | SW-620 > 100 µM | T47D > 100 µM | U-251 82.4 µM | UACC-257 > 100 µM | UACC-62 > 100 µM

COc1cc(/C=C/c2nc(NC(=S)Nc3ccccc3)nnc2C)cc(OC)c1OC
inactive: 786-0 28.3 µM | A498 27.8 µM | A549 23.8 µM | ACHN 18.2 µM | BT-549 25.2 µM | CAKI-1 29.1 µM | CCRF-CEM 13.5 µM | COLO 205 15.5 µM | DU-145 34 µM | EKVX 22.4 µM | HCC 2998 12.6 µM | HCT-116 24.7 µM | HL-60 8.3 µM | HOP-62 35.2 µM | HOP-92 53.7 µM | HT-29 14.7 µM | Hs-578T 17.6 µM | IGROV-1 27.2 µM | K562 29.9 µM | KM12 14.5 µM | LOX IMVI 37.2 µM | M14 21.4 µM | MCF7 13.9 µM | MDA-MB-231 33 µM | MDA-MB-435 38.4 µM | MDA-N 48.2 µM | MOLT-4 25 µM | Malme-3M 23.9 µM | NCI-H226 23.7 µM | NCI-H23 17.3 µM | NCI-H460 15.7 µM | NCI-H522 11.1 µM | NCI/ADR-RES 28.4 µM | OVCAR-4 18.7 µM | OVCAR-5 31.6 µM | OVCAR-8 20.8 µM | PC-3 14.3 µM | RPMI-8226 22.7 µM | RXF 393 23.6 µM | SF-268 27.4 µM | SF-295 50.1 µM | SK-MEL-28 > 100 µM | SK-MEL-2 14.5 µM | SK-MEL-5 14.7 µM | SK-OV-3 29.6 µM | SN12C 39.1 µM | SNB-19 32.5 µM | SR 12.4 µM | SW-620 38.1 µM | T47D 19.7 µM | TK-10 41.4 µM | U-251 31 µM | UACC-257 30.3 µM | UACC-62 14.1 µM | UO-31 4.36 µM
11.2 µM: HCT-15

COc1cc(C=C2C(C)=NN(c3cccc(Cl)c3)C23SCC(=O)N3c2nc3ccccc3s2)ccc1O (centres undefined)
30.4 µM: HCT-15
inactive: 786-0 29.5 µM | A498 26.4 µM | A549 29.6 µM | ACHN 26.1 µM | BT-549 25.9 µM | CAKI-1 29.6 µM | CCRF-CEM 4.56 µM | COLO 205 16.9 µM | DU-145 32.4 µM | EKVX 39.5 µM | HCC 2998 24.3 µM | HCT-116 24.7 µM | HL-60 3.72 µM | HOP-62 26 µM | HOP-92 18 µM | HT-29 33 µM | Hs-578T 9.46 µM | IGROV-1 29.4 µM | K562 17.3 µM | KM12 30.8 µM | LOX IMVI 27.5 µM | M14 40.3 µM | MCF7 27.7 µM | MDA-MB-231 20.8 µM | MDA-MB-435 29.4 µM | MDA-N 31.5 µM | MOLT-4 15.8 µM | Malme-3M 16.5 µM | NCI-H226 35.1 µM | NCI-H23 30.1 µM | NCI-H460 35.6 µM | NCI-H522 17.9 µM | NCI/ADR-RES 33 µM | OVCAR-3 27 µM | OVCAR-4 36.2 µM | OVCAR-5 46.3 µM | OVCAR-8 20.1 µM | PC-3 21.3 µM | RPMI-8226 13.4 µM | RXF 393 29.2 µM | SF-268 23.2 µM | SF-295 33.6 µM | SF-539 24.3 µM | SK-MEL-28 33 µM | SK-MEL-2 19.4 µM | SK-MEL-5 18.2 µM | SK-OV-3 21.4 µM | SN12C 30.1 µM | SNB-19 31.8 µM | SR 13.2 µM | SW-620 27.3 µM | T47D 33.3 µM | TK-10 35.3 µM | U-251 18.8 µM | UACC-257 32.7 µM | UACC-62 26.7 µM | UO-31 30.6 µM

COC(=O)Cc1c(/C=C/C(C)(C)n2cnc(CCN3C(=O)CCC3=O)c2)[nH]c2ccccc12
> 100 µM: HCT-15
inactive: 786-0 > 100 µM | A498 > 100 µM | A549 94.6 µM | ACHN 95.5 µM | BT-549 > 100 µM | CAKI-1 > 100 µM | CCRF-CEM 40.4 µM | COLO 205 > 100 µM | DU-145 > 100 µM | EKVX 13.7 µM | HCT-116 > 100 µM | HL-60 > 100 µM | HOP-92 53.6 µM | HT-29 35.4 µM | Hs-578T 43.7 µM | IGROV-1 > 100 µM | K562 > 100 µM | KM12 > 100 µM | LOX IMVI > 100 µM | M14 > 100 µM | MCF7 47.2 µM | MDA-MB-231 > 100 µM | MDA-MB-435 > 100 µM | MDA-N > 100 µM | MOLT-4 57.3 µM | Malme-3M 37 µM | NCI-H226 > 100 µM | NCI-H23 > 100 µM | NCI-H460 > 100 µM | NCI-H522 43.4 µM | NCI/ADR-RES > 100 µM | OVCAR-3 > 100 µM | OVCAR-4 > 100 µM | OVCAR-5 > 100 µM | OVCAR-8 > 100 µM | PC-3 > 100 µM | RXF 393 36.3 µM | SF-268 59.6 µM | SF-295 81.1 µM | SF-539 > 100 µM | SK-MEL-28 > 100 µM | SK-MEL-2 > 100 µM | SK-MEL-5 66.8 µM | SK-OV-3 > 100 µM | SN12C > 100 µM | SNB-19 > 100 µM | SNB-75 50.4 µM | SR 61.4 µM | SW-620 > 100 µM | T47D 22.3 µM | TK-10 > 100 µM | U-251 > 100 µM | UACC-257 > 100 µM | UACC-62 14.2 µM | UO-31 74.8 µM
